Reference: PMC8229862, “Elaiophylin Is a Potent Hsp90/ Cdc37 Protein Interface Inhibitor with K-Ras Nanocluster Selectivity” (Biomolecules, 2021)

Tests used:
Hsp90α = molecular target: T1, Hsp90α (Homo sapiens, UniProt P07900); assay: co-immunoprecipitation of Cdc37 with Hsp90α from cells treated with […] for […] h; assay type: cell-based
T1 construct: gene HSP90AA1; endogenous Hsp90 in MDA-MB-231 or MIA PaCa-2 cells; with Cdc37

[1] = molecular target: T2, Hsp90 (N-terminal domain) (Homo sapiens, UniProt P07900); assay: lysate-based split Renilla luciferase Hsp90/Cdc37 interaction assay; supported by co-immunoprecipitation; assay type: biochemical
T2 construct: gene HSP90AA1; N-terminal fragment of Hsp90 (NRL-N-Hsp90); with Cdc37

SMILES	co-immunoprecipitation of Cdc37 with Hsp90α from cells treated with 10 μM for 24 (Hsp90α)	IC50 [1]
C/C1=C\[C@H](C)C[C@H](C)[C@H](Cc2cnco2)OC(=O)/C(C)=C/[C@H](C)C[C@H](C)[C@H](Cc2cnco2)OC1=O [conglobatin A]	Both elaiophylin and conglobatin A treatment reduced the amount of co-precipitated Cdc37	
CC[C@@H]1[C@@H](C)O[C@@](O)([C@@H](C)[C@H](O)[C@H](C)[C@H]2OC(=O)/C=C/C=C/[C@H](C)[C@@H]([C@@H](C)[C@@H](O)[C@H](C)[C@@]3(O)C[C@@H](O[C@H]4C[C@H](O)[C@H](O)[C@H](C)O4)[C@H](CC)[C@@H](C)O3)OC(=O)/C=C/C=C/[C@@H]2C)C[C@H]1O[C@H]1C[C@H](O)[C@H](O)[C@H](C)O1 [elaiophylin]		11 ± 4 µM
